Data published in patent EP0982397A1, “Inhibition of contact system activation” (Stichting Sanquin Bloedvoorziening, priority 1998, dated 2000).
Peptide text beside a SMILES is read from it.

Assays:
FXII = test: Binding of 125I-FXII to kaolin; design: species or system human
Procedure: • Figure 1: Effects of mAb KOK5 on activation of purified FXII. • A: Activation by kallikrein: Twenty-five µl of prewarmed FXII (125 nM), 25 µl of serial dilutions of mAb KOK5, 25 µl of prewarmed kallikrein (25 nM) and 25 µl of buffer yielding final concentrations of 50 mM Tris-HCl, 150 mM NaCl, 0.1% (wt/vol) Tween-20, pH 7.8, were incubated for 30 min at 37°C. Thereafter, 50 µl of assay mixture containing the chromogenic substrate S-2302 were added and the increase in absorbance at 405 nm at 37°C was recorded. Results are expressed as percentage of the total amount of FXII present in the mixture (as determined by limited digestion with 10 nM trypsin), and represent the mean ± SE of two experiments. […] Thereafter, 50 µl of assay mixture containing S-2302 were added and the increase in absorbance at 405 nm at 37°C was recorded. […] The reaction was stopped by adding 120 µl of stop buffer (PBS, 0.1 mg/ml SBTI, Polybrene 0.05% wt/vol) and the amount of FXIIa-C1-inhibitor (+---+), kallikrein-C1-inhibitor (o- -o) and factor XIa-C1-inhibitor (●- -●) complexes generated was measured. Results, expressed as percentage of the maximum amount of complexes generated in pooled plasma by DS500 (50 µg/ml), represent the mean values ± S.D. from three different experiments. • Figure 3. […] Binding was expressed as the percentage of the total counts that were found in the pellet in the absence of mAbs. […]

contact system [1] = test: Inhibition by synthetic peptides of contact system activation in EDTA-plasma induced by DS500; format: biochemical, human; conditions: Activator DS500
Procedure: (§1) • Figure 1: Effects of mAb KOK5 on activation of purified FXII. • A: Activation by kallikrein: Twenty-five µl of prewarmed FXII (125 nM), 25 µl of serial dilutions of mAb KOK5, 25 µl of prewarmed kallikrein (25 nM) and 25 µl of buffer yielding final concentrations of 50 mM Tris-HCl, 150 mM NaCl, 0.1% (wt/vol) Tween-20, pH 7.8, were incubated for 30 min at 37°C. Thereafter, 50 µl of assay mixture containing the chromogenic substrate S-2302 were added and the increase in absorbance at 405 nm at 37°C was recorded. Results are expressed as percentage of the total amount of FXII present in the mixture (as determined by limited digestion with 10 nM trypsin), and represent the mean ± SE of two experiments. […] Thereafter, 50 µl of assay mixture containing S-2302 were added and the increase in absorbance at 405 nm at 37°C was recorded. […] The reaction was stopped by adding 120 µl of stop buffer (PBS, 0.1 mg/ml SBTI, Polybrene 0.05% wt/vol) and the amount of FXIIa-C1-inhibitor (+---+), kallikrein-C1-inhibitor (o- -o) and factor XIa-C1-inhibitor (●- -●) complexes generated was measured. Results, expressed as percentage of the maximum amount of complexes generated in pooled plasma by DS500 (50 µg/ml), represent the mean values ± S.D. from three different experiments. • Figure 3. […] In addition 50 µl of purified FXII (500 nM) were first incubated for 2 min with kaolin and then with serial dilutions of mAb KOK5 for 15 min (+---+); whereafter the residual FXII clotting activity was measured. Results are expressed as percentage of inhibition compared to the clotting activity measured in the absence of mAbs and are the mean ± SE of two experiments. • Figure 4. […] After 10 min at room temperature tubes were centrifuged for 2 min at 10,000 g and the pellets were counted for radioactivity. Binding was expressed as the percentage of the total counts that were found in the pellet in the absence of mAbs. […] Bound FXII was detected by subsequent incubation with ^125I-anti-FXII antibodies. Results are expressed as percentage of the ^125I-anti-FXII added and represent the means of two experiments. • Figure 6. […]

contact system [2] = test: Inhibition by synthetic peptides of contact system activation in EDTA-plasma induced by kaolin; format: biochemical, human; conditions: Activator kaolin
Procedure: as §1, with “measured.” for “measured. Results, expressed as percentage of the maximum amount of complexes generated in pooled plasma by DS500 (50 µg/ml), represent the mean values ± S.D. from three different experiments. • Figure 3.”

mAb KOK5 = test: cell-based or functional assay
[3] = read-out: FXIIa-C1inh (IC50 values)
[4] = read-out: FXIa-C1inh (IC50 values)
[5] = read-out: kal-C1inh (IC50 values)

Molecule	IC50 relative to that of FXII itself (times higher) (FXII; inhibition of binding of 125I-FXII to kaolin)	IC50 (FXII; synthetic peptides, read-out: IC50, inhibition of binding of 125I-FXII to kaolin) [mM]	IC50 (contact system [1]; [3]) [mM]	IC50 (contact system [1]; [4]) [mM]	IC50 (contact system [1]; [5]) [mM]	IC50 (contact system [2]; [3]) [mM]	IC50 (contact system [2]; [4]) [mM]	IC50 (contact system [2]; [5]) [mM]	inhibition of FXII activation by kallikrein in the presence of mAb KOK5 (IC50) (mAb KOK5) [mM]
C[C@@H](O)[C@H](NC(=O)[C@H](CS)NC(=O)[C@H](CCC(N)=O)NC(=O)[C@H](Cc1c[nH]cn1)NC(=O)[C@@H](N)CO)C(=O)N[C@@H](Cc1c[nH]cn1)C(=O)N[C@@H](CCCNC(=N)N)C(=O)N[C@@H](CCCCN)C(=O)N[C@@H](CS)C(=O)N[C@@H](Cc1ccc(O)cc1)C(=O)O [SHQCTHRKCY] (H-SHQCTHRKCY-OH)	10,000 times	0.9	3.15 ± 0.85	6.75 ± 1.25	5.25 ± 2.7	7 ± 1.4	7.5 ± 0.5	6 ± 2.1	–
AEGEFRFQTPQWE [synthetic peptide …]	–	–	–	–	–	–	–	–	0.05
